Data: patent US8017606B2, “Quinoline derivatives as antibacterial agents” (Janssen Pharmaceutica NV, priority 2005, dated 2011)
Converted amounts (≈) assume the structure as drawn. Counter-ions that a name gives are not always drawn.

What was measured:
[1] = test system: Streptococcus mutans (ATCC33402); assay: Microtitre plate assay, IC90 determination; assay type: cell-based; settings: 90% inhibitory concentration for bacterial growth, 37° C., resazurin fluorescence, read-out: IC90 (μg/ml) SMU 33402
Experimental: (§1) The bacteria used in this study were grown overnight in flasks containing 100 ml Mueller-Hinton Broth (Becton Dickinson—cat. no. 275730) in sterile de-ionized water, with shaking, at 37° C. Stocks (0.5 ml/tube) were stored at −70° C. until use. Bacteria titrations were performed in microtiter plates and colony forming units (CFUs) were determined. In general, an inoculum level of approximately 100 CFUs was used for susceptibility testing.
(§2) Anti Bacterial Susceptibility Testing: IC90 Determination
(§3) Flat-bottom, sterile 96-well plastic microtiter plates were filled with 180 μl of sterile deionized water, supplemented with 0.25% BSA. Subsequently, stock solutions (7.8×final test concentration) of compounds were added in 45 μl volumes in column 2 Serial five-fold dilutions (45 μl in 180 μl) were made directly in the microtiter plates from column 2 to reach column 11. Untreated control samples with (column 1) and without (column 12) inoculum were included in each microtiter plate. Depending on the bacteria type, approximately 10 to 60 CFU per well of bacteria inoculum (100 TCID50), in a volume of 100 μl in 2.8× Mueller-Hinton broth medium, was added to the rows A to H, except column 12. The same volume of broth medium without inoculum was added to column 12 in row A to H. The cultures were incubated at 37° C. for 24 hours under a normal atmosphere (incubator with open air valve and continuous ventilation). At the end of incubation, one day after inoculation, the bacterial growth was quantitated fluorometrically. Therefore resazurin (0.6 mg/ml) was added in a volume of 20 μl to all wells […], and the plates were re-incubated overnight. A change in colour from blue to pink indicated the growth of bacteria.
(§4) The fluorescence was read in a computer-controlled fluorometer (Cytofluor Biosearch) at an excitation wavelength of 530 nm and an emission wavelength of 590 nm. The % growth inhibition achieved by the compounds was calculated according to standard methods. The IC90 (expressed in μg/ml) was defined as the 90% inhibitory concentration for bacterial growth.

[2] = test system: Staphylococcus aureus (ATCC29213); assay: Microtitre plate assay, IC90 determination; assay type: cell-based; settings: 90% inhibitory concentration for bacterial growth, 37° C., resazurin fluorescence, read-out: IC90 (μg/ml) STA 29213
Experimental: as §1, §2, §3, §4

[3] = test system: methicilline resistant Staphylococcus aureus (MRSA) (a clinical isolate from the University of Antwerp); assay: Microtitre plate assay, IC90 determination; assay type: cell-based; settings: 90% inhibitory concentration for bacterial growth, 37° C., resazurin fluorescence, read-out: IC90 (μg/ml) STA RMETHIC
Experimental: as §1, §2, §3, §4

[4] = test system: Staphylococcus aureus (ATCC25923); assay: Microtitre plate assay, IC90 determination; assay type: cell-based; settings: 90% inhibitory concentration for bacterial growth, 37° C., resazurin fluorescence, read-out: IC90 (μg/ml) STA 25923
Experimental: as §1, §2, §3, §4

[5] = test system: Enterococcus faecalis (ATCC14506); assay: Microtitre plate assay, IC90 determination; assay type: cell-based; settings: 90% inhibitory concentration for bacterial growth, 37° C., resazurin fluorescence, read-out: IC90 (μg/ml) EFA 14506
Experimental: as §1, §2, §3, §4

[6] = test system: Bacillus subtilis (ATCC43639); assay: Microtitre plate assay, IC90 determination; assay type: cell-based; settings: 90% inhibitory concentration for bacterial growth, 37° C., resazurin fluorescence, read-out: IC90 (μg/ml) BSU 43639
Experimental: as §1, §2, §3, §4

[7] = test system: Pseudomonas aeruginosa (ATCC27853); assay: Microtitre plate assay, IC90 determination; assay type: cell-based; settings: 90% inhibitory concentration for bacterial growth, 37° C., resazurin fluorescence, read-out: IC90 (μg/ml) PAE 27853
Experimental: as §1, §2, §3, §4

[8] = test system: Streptococcus pneumoniae (ATCC6305); assay: Microtitre plate assay, IC90 determination; assay type: cell-based; settings: 90% inhibitory concentration for bacterial growth, 37° C., resazurin fluorescence, read-out: IC90 (μg/ml) SPN 6305
Experimental: as §1, §2, §3, §4

[9] = test system: Listeria monocytogenes (ATCC49594); assay: Microtitre plate assay, IC90 determination; assay type: cell-based; settings: 90% inhibitory concentration for bacterial growth, 37° C., resazurin fluorescence, read-out: IC90 (μg/ml) LMO 49594
Experimental: as §1, §2, §3, §4

[10] = test system: Enterococcus faecalis (ATCC29212); assay: Microtitre plate assay, IC90 determination; assay type: cell-based; settings: 90% inhibitory concentration for bacterial growth, 37° C., resazurin fluorescence, read-out: IC90 (μg/ml) EFA 29212
Experimental: as §1, §2, §3, §4

[11] = test system: Streptococcus pyogens (ATCC8668); assay: Microtitre plate assay, IC90 determination; assay type: cell-based; settings: 90% inhibitory concentration for bacterial growth, 37° C., resazurin fluorescence, read-out: IC90 (μg/ml) SPY 8668
Experimental: as §1, §2, §3, §4

Row | Compound | melting point [°C] | IC90 [1] [µg/mL] | IC90 [2] [µg/mL] | IC90 [3] [µg/mL] | IC90 [4] [µg/mL] | IC90 [5] [µg/mL] | IC90 [6] [µg/mL] | IC90 [7] [µg/mL] | IC90 [8] [µg/mL] | IC90 [9] [µg/mL] | IC90 [10] [µg/mL] | IC90 [11] [µg/mL]
1 | CN(C)CCC(O)(c1cc(F)cc(F)c1)c1ccc2nc(-c3cccnc3)cc(-c3ccccc3)c2c1 (stereo not drawn) (as salt: salt) [Compound 42] | 151 |  |  |  |  |  |  |  |  |  |  | 
2 | CN(C)CCC(O)(c1cc(F)cc(F)c1)c1cccc2nc(N(C)C)c(-c3ccccc3)cc12 (stereo not drawn) (as salt: salt) [Compound 45] | 136 |  |  |  |  |  |  |  |  |  |  | 
3 | COc1nc2c(C(O)(CCN(C)C)c3cc(F)cc(F)c3)cc(-c3cccnc3)cc2cc1-c1ccccc1 (stereo not drawn) (as salt: salt) [Compound 64] | 156 |  |  |  |  |  |  |  |  |  |  | 
4 | COc1nc2cccc(C(O)(CCN(C)C)c3cc(F)cc(F)c3)c2cc1-c1ccccc1 (stereo not drawn) [Compound 1] |  | 9 (≈ 20.1 µM) | 11.3 (≈ 25.2 µM) | 11.3 (≈ 25.2 µM) | 11.3 (≈ 25.2 µM) | 11.3 (≈ 25.2 µM) | 11.3 (≈ 25.2 µM) | 11.3 (≈ 25.2 µM) | 11.3 (≈ 25.2 µM) | 11.3 (≈ 25.2 µM) | 11.3 (≈ 25.2 µM) | 9 (≈ 20.1 µM)
5 | CN(C)CCC(O)(Cc1c(-c2ccccc2)c(-c2ccccc2)nc2ccccc12)c1cc(F)cc(F)c1 (stereo not drawn) [Compound 21] | 173 |  | 12.8 (≈ 25.2 µM) | 12.8 (≈ 25.2 µM) | 12.8 (≈ 25.2 µM) |  | 12.8 (≈ 25.2 µM) | 12.8 (≈ 25.2 µM) | 12.8 (≈ 25.2 µM) | 12.8 (≈ 25.2 µM) | 12.8 (≈ 25.2 µM) | 12.8 (≈ 25.2 µM)
6 | CN(C)CCC(O)(c1cc(F)cc(F)c1)c1cc(Br)cc2cc(-c3ccccc3)c(-n3ccnc3)nc12 (stereo not drawn) [Compound 22] | 136 | 11.2 (≈ 19.9 µM) | 14.2 (≈ 25.2 µM) | 14.2 (≈ 25.2 µM) | 12.6 (≈ 22.4 µM) |  |  | 14.2 (≈ 25.2 µM) | 12.6 (≈ 22.4 µM) | 14.2 (≈ 25.2 µM) | 14.2 (≈ 25.2 µM) | 11.2 (≈ 19.9 µM)
7 | CN(C)CCC(O)(c1cccc2ccccc12)c1cc(Br)cc2cc(Cc3ccccc3)c(-n3ccnc3)nc12 (stereo not drawn) [Compound 24] |  | 11.8 (≈ 19.9 µM) | 11.8 (≈ 19.9 µM) | 14.9 (≈ 25.2 µM) | 13.2 (≈ 22.3 µM) | 11.8 (≈ 19.9 µM) | 11.8 (≈ 19.9 µM) | 14.9 (≈ 25.2 µM) | 14.9 (≈ 25.2 µM) | 14.9 (≈ 25.2 µM) | 14.9 (≈ 25.2 µM) | 11.8 (≈ 19.9 µM)
8 | CN(C)CCC(O)(c1cccc2ccccc12)c1cc(Br)cc2cc(Cc3ccccc3)c(N3CCN(c4n[nH]c5ccccc45)CC3)nc12 (stereo not drawn) [Compound 26] |  | 2.9 (≈ 4 µM) | 16.3 (≈ 22.5 µM) | 18.2 (≈ 25.1 µM) | 7.3 (≈ 10.1 µM) | 14.5 (≈ 20 µM) | 14.5 (≈ 20 µM) | 2.9 (≈ 4 µM) | 3.6 (≈ 4.96 µM) | 3.6 (≈ 4.96 µM) | 3.6 (≈ 4.96 µM) | 2.9 (≈ 4 µM)
9 | CN(C)CCC(O)(c1cccc2ccccc12)c1cc(Br)cc2cc(-c3ccccc3)c(-n3cncn3)nc12 (stereo not drawn) [Compound 33] |  | 11.5 (≈ 19.9 µM) | 14.5 (≈ 25.1 µM) | 14.5 (≈ 25.1 µM) | 14.5 (≈ 25.1 µM) | 46 (≈ 79.5 µM) | 11.5 (≈ 19.9 µM) | 14.5 (≈ 25.1 µM) | 14.5 (≈ 25.1 µM) | 14.5 (≈ 25.1 µM) | 14.5 (≈ 25.1 µM) | 11.5 (≈ 19.9 µM)
10 | CN(C)CCC(O)(c1cc(F)cc(F)c1)c1cccc2nc(N(C)C)c(-c3ccccc3)cc12 (stereo not drawn) [Compound 45] |  | 9.2 (≈ 19.9 µM) | 9.2 (≈ 19.9 µM) | 46.2 (≈ 100 µM) | 10.3 (≈ 22.3 µM) | 10.3 (≈ 22.3 µM) | 9.2 (≈ 19.9 µM) | 11.6 (≈ 25.1 µM) | 11.6 (≈ 25.1 µM) | 11.6 (≈ 25.1 µM) | 11.6 (≈ 25.1 µM) | 9.2 (≈ 19.9 µM)
11 | CN(C)CCC(O)(c1ccccc1)c1cc(Br)cc2cc(Cc3ccccc3)c(OCCN3CCCCC3)nc12 (stereo not drawn) [Compound 48] | 131 | 47.9 (≈ 79.5 µM) | 53.7 (≈ 89.1 µM) | 60.3 (≈ 100 µM) | 53.7 (≈ 89.1 µM) |  | 60.3 (≈ 100 µM) | 47.9 (≈ 79.5 µM) | 60.3 (≈ 100 µM) | 60.3 (≈ 100 µM) | 60.3 (≈ 100 µM) | 47.9 (≈ 79.5 µM)
12 | COc1nc2c(C(O)(CCN(C)C)c3cc(F)cc(F)c3)cc(-c3cccnc3)cc2cc1-c1ccccc1 (stereo not drawn) [Compound 64] |  | 2.1 (≈ 4 µM) | 8.3 (≈ 15.8 µM) | 11.8 (≈ 22.5 µM) | 6.6 (≈ 12.6 µM) | 10.5 (≈ 20 µM) | 8.3 (≈ 15.8 µM) | 13.2 (≈ 25.1 µM) | 10.5 (≈ 20 µM) | 13.2 (≈ 25.1 µM) | 13.2 (≈ 25.1 µM) | 2.1 (≈ 4 µM)
13 | COc1nc2c(C(O)(CCN(C)C)c3ccccc3)cc(-c3cccnc3)cc2cc1Cc1ccccc1 (stereo not drawn) [Compound 66] | 180 | 40 (≈ 79.4 µM) | 40 (≈ 79.4 µM) | 50.4 (≈ 100 µM) | 50.4 (≈ 100 µM) |  | 50.4 (≈ 100 µM) | 40 (≈ 79.4 µM) | 50.4 (≈ 100 µM) | 50.4 (≈ 100 µM) | 50.4 (≈ 100 µM) | 40 (≈ 79.4 µM)
14 | CN(C)CCC(O)(c1cccc2ccccc12)c1cc(Br)cc2cc(-c3ccccc3)c(=O)[nH]c12 (stereo not drawn) [Compound 69] | 190 |  | 13.3 (≈ 25.2 µM) | 52.8 (≈ 100 µM) | 52.8 (≈ 100 µM) |  | 52.8 (≈ 100 µM) | 13.3 (≈ 25.2 µM) | 13.3 (≈ 25.2 µM) | 41.9 (≈ 79.4 µM) | 13.3 (≈ 25.2 µM) | 13.3 (≈ 25.2 µM)
15 | COc1nc2ccccc2c(CC(O)(CCN(C)C)c2cccc(F)c2)c1Cc1ccccc1 (stereo not drawn) [Compound 71] | 123 | 9.2 (≈ 20.1 µM) | 11.5 (≈ 25.1 µM) | 11.5 (≈ 25.1 µM) | 11.5 (≈ 25.1 µM) |  | 11.5 (≈ 25.1 µM) | 11.5 (≈ 25.1 µM) | 11.5 (≈ 25.1 µM) | 9.2 (≈ 20.1 µM) | 11.5 (≈ 25.1 µM) | 9.2 (≈ 20.1 µM)
